The values below come from patent publication US4981788A, “Novel acetylpolyamine amidohydrolase” (Kyowa Hakko Kogyo Co., Ltd., priority 1987, dated 1991).

The subject of assay [1] is E3: Enzyme derived from Micrococcus luteus. The note with it: cited from earlier work.
For assay [2], the target named is T1, acetylpolyamine amidohydrolase (the present enzyme, product purified to homogeneity) (Mycoplana ramosa, UniProt Q48935).
T1 construct: novel acetylpolyamine amidohydrolase of the present invention accumulated within the grown cells; made in house; host or cells: Mycoplana (natural producer)
T1 sequence (Q48935 1-341): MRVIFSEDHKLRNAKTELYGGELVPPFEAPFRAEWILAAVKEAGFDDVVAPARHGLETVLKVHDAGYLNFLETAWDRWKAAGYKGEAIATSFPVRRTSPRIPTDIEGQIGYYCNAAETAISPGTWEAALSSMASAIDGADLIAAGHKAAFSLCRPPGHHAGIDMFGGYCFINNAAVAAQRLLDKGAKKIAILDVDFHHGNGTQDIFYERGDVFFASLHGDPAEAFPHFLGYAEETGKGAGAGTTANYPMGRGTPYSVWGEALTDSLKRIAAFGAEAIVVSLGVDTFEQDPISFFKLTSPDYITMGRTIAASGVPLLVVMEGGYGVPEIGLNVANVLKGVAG
The experiment in a line: Effects of various compounds upon enzyme activity, product purified to homogeneity (Method 1). Type of assay: biochemical, Mycoplana bullata. The settings on record: for activity at 100 µM: read-out: Relative Activity (%) at 0.1 mM. An excerpt: [Method 1] (Standard assay)
In this standard method for measuring the activity of acetylpolyamine amidohydrolases, the enzyme being tested is allowed to react with acetylputrescine as substrate to produce putrescine, which is in turn oxidized with putrescine oxidase. Hydrogen peroxide thus formed is then subjected to oxidative condensation with phenol and 4-aminoantipyrine in the presence of horseradish peroxidase to form quinoneimine pigment. The rate of increase in the absorbance of a colored reaction solution at 500 nm is measured with a spectrophotometer.
The above reagents, (b) through (h), were put in a cuvette (d: 1.0 cm) and the mixture was preincubated at 37° C. for 2 minutes. The substrate solution (a) was then added and the resulting mixture was held at 37° C., absorbance at 500 nm was measured over a period of 3 to 5 minutes, and the change in absorbance per minute (ΔODsample) was determined from the linear portion of the plotted curve. For control, the same procedure as above was carried out, using distilled water as reference.
One unit of acetylpolyamine amidohydrolase is defined as its amount necessary to hydrolyze 1 μmole of acetylputrescine at 37° C. for one minute (or the amount necessary to form 0.5 μmole of quinoneimine pigment formed in the method for measuring the enzyme activity described above).
To 50 mM Tris-HCl buffer (pH 7.0) containing the present enzyme, was added each of the compounds being tested to a concentration of 0.1 mM or 1.0 mM. The mixture was incubated at 37° C. for 10 minutes, a sample solution was taken out, and its residual activity was measured according to the procedure described in [Method 1].

In assay [3] the target is T2, acetylpolyamine amidohydrolase (the present enzyme, partially purified product) (Mycoplana ramosa, UniProt Q48935).
T2 construct: novel acetylpolyamine amidohydrolase of the present invention accumulated within the grown cells; made in house; host or cells: Mycoplana (natural producer; cells grown in culture)
T2 sequence (Q48935 1-341): T1 sequence (Q48935 1-341)
Kind of assay: Effects of inhibitors and metal ions, partially purified present enzyme. Type of assay: biochemical, Mycoplana bullata. The note with it: for Inhibition of the present enzyme (in words): partially purified product; for inhibition at 1000 µM: read-out: Relative activity in presence of inhibitor/metal ion, the present enzyme. As to the method: Activity of the present enzyme (partially purified products) is measured according to the following procedure. That is, 0.1 ml of an enzyme solution is added to a reagent solution consisting of 1.5 ml of 0.1 M phosphate buffer (pH 7.0), 0.05 ml of 50 mM acetylpolyamine, 0.4 U of putrescine oxidase (when acetylputrescine, acetylcadaverine or acetylspermidine is used as substrate) or polyamine oxidase (when acetylspermidine or acetylspermine is used as substrate), 0.5 ml of 2.4 mM 4-aminoantipyrine, 0.5 ml of 42 mM phenol and 20 U of peroxidase. The mixture is incubated at 37° C., and the absorbance of quinoneimine pigment formed at 500 nm is measured.
The effects of various inhibitors and metal ions upon the present enzyme and the other known enzymes were examined using acetylputrescine as substrate.

Assay [4] deals with E1: Enzyme derived from Streptomyces avellaneus. The settings on record: concentration of 1mM; acetylputrescine as substrate; cited from earlier work.
Assay [5] concerns E2: Enzyme derived from Arthrobacter sp. The note with it: concentration of 1mM; acetylputrescine as substrate; cited from earlier work.
The mark [6] stands for this setting: compound 1.0 mM, 50 mM Tris-HCl pH 7.0, 37° C., 10 minutes, residual activity, read-out: Relative Activity (%) at 1.0 mM.
The mark [7] stands for this setting: compound 0.1 mM, 50 mM Tris-HCl pH 7.0, 37° C., 10 minutes, residual activity.
The mark [8] stands for this setting: compound 1.0 mM, 50 mM Tris-HCl pH 7.0, 37° C., 10 minutes, residual activity.
Setting [9] is: concentration of 1mM, acetylputrescine as substrate.
Where [10] appears, read: concentration of 1mM, acetylputrescine as substrate, no addition = 100%.

Entries after “also recorded” stand apart in the source; their conditions may differ. Where a name gives a salt, the structure may show the parent alone. Read-outs that look alike come from different tables or passages of the source.

Regarding `Oc1cccc2cccnc12` [8-Hydroxyquinoline], the “Relative activity in presence of inhibitor/metal ion, E3” value in assay [1] was 98. In assay [2], the “Inhibition of the present enzyme (in words)” value (from here on “Inhibition … (in words)”) is given as “considerably inhibited”. In assay [2] (pH 7), the “Relative Activity (%) at 0.1 mM” value amounted to 57% and the “Relative Activity (%) at 1.0 mM” value is reported as 66%. Moreover, the “Relative activity in presence of inhibitor/metal ion, the present enzyme” value in assay [3] was 3.
As to `c1ccc(-c2ccccn2)nc1` [a,a'-Dipyridyl], in assay [2] (setting [6]), the activity at 1000 µM amounted to 92%.
`[Cl-].[Cl-].[Zn+2]` [ZnCl2]: the “Relative Activity (%) at 0.1 mM” value in assay [2] (setting [7]) came out at 1%. Besides, the “Relative Activity (%) at 1.0 mM” value in assay [2] (setting [8]) is on record as 22%.
As to `[Mn+2]` [Mn^2+], the “Relative activity in presence of inhibitor/metal ion, E1” value in assay [4] is listed as 82%. For the same compound, the “Relative activity in presence of inhibitor/metal ion, E3” value in assay [1] (setting [9]) is recorded as 50%. Besides, the “Relative activity in presence of inhibitor/metal ion, the present enzyme” value in assay [3] (setting [10]) is on record as 124%. In addition, the “Relative activity in presence of inhibitor/metal ion, E2” value in assay [5] is 101%.
In the case of `[Cl][Ni][Cl]` [NiCl2], the “Relative Activity (%) at 1.0 mM” value in assay [2] (setting [8]) turned out to be 90%.
Take `[Zn+2]` [Zn^2+]: in assay [4], the “Relative activity in presence of inhibitor/metal ion, E1” value is given as 3%. Also, the “Relative activity in presence of inhibitor/metal ion, E3” value in assay [1] (setting [9]) is reported as 4%. Also, the results for the “Inhibition … (in words)” value in assay [2] (purified to homogeneity) and in assay [3] were “inhibited; also recorded: most remarkably” and “hardly inhibited”, respectively. Also, the “Relative activity in presence of inhibitor/metal ion, the present enzyme” value in assay [3] (setting [10]) worked out at 100%. Besides, the “Relative activity in presence of inhibitor/metal ion, E2” value in assay [5] was 32%.
As to `O=S(=O)(F)Cc1ccccc1` [Phenylmethanesulfonyl fluoride], the “Relative Activity (%) at 0.1 mM” value in assay [2] (setting [7]) worked out at 86%. In addition, the “Relative Activity (%) at 1.0 mM” value in assay [2] (setting [8]) is 90%. For the same compound, the “Inhibition … (in words)” value in assay [2] (purified to homogeneity) was “slightly inhibited”.
As to `[N-]=[N+]=[N-].[Na+]` [NaN3], in assay [4], the “Relative activity in presence of inhibitor/metal ion, E1” value is on record as 93%. Besides, in assay [1] (setting [9]), the “Relative activity in presence of inhibitor/metal ion, E3” value is recorded as 98%. In addition, the “Relative Activity (%) at 1.0 mM” value in assay [2] (setting [8]) turned out to be 95%. The “Relative activity in presence of inhibitor/metal ion, the present enzyme” value in assay [3] (setting [10]) is listed as 90%. In assay [5], the “Relative activity in presence of inhibitor/metal ion, E2” value is 99%.
For `c1cnc2c(c1)ccc1cccnc12` [o-Phenanthroline], in assay [4], the “Relative activity in presence of inhibitor/metal ion, E1” value is listed as 14%. Moreover, the “Relative activity in presence of inhibitor/metal ion, E3” value in assay [1] (setting [9]) is on record as 33%. In assay [2] (setting [6]), the activity at 1000 µM amounted to 95%. Besides, in assay [2] (purified to homogeneity), the “Inhibition … (in words)” value is on record as “no inhibitory action”. Besides, in assay [3] (setting [10]), the inhibition at 1000 µM turned out to be 68%. Further, in assay [5], the “Relative activity in presence of inhibitor/metal ion, E2” value is 94%.
As to `NO` [Hydroxylamine], the “Relative activity in presence of inhibitor/metal ion, the present enzyme” value in assay [3] (setting [10]) is on record as 24%.
Regarding `[Cl-].[Cl-].[Mg+2]` [MgCl2], the “Relative Activity (%) at 0.1 mM” value in assay [2] (setting [7]) was 87%. Moreover, the “Relative Activity (%) at 1.0 mM” value in assay [2] (setting [8]) was 85%.
Regarding `[Mg+2]` [Mg^2+], the “Relative activity in presence of inhibitor/metal ion, E1” value in assay [4] is recorded as 104%. Also, the “Relative activity in presence of inhibitor/metal ion, E3” value in assay [1] (setting [9]) is on record as 99%. Moreover, the “Inhibition … (in words)” value in assay [2] (purified to homogeneity) is given as “inhibited”. In addition, the “Relative activity in presence of inhibitor/metal ion, the present enzyme” value in assay [3] (setting [10]) amounted to 97%. For the same compound, the “Relative activity in presence of inhibitor/metal ion, E2” value in assay [5] is 112%.
As for `NNC(N)=O` [Semicarbazide hydrochloride], in assay [2] (setting [7]), the activity at 100 µM came out at 103%. Also, in assay [2] (setting [6]), the activity at 1000 µM stood at 91%.
As for `O=[N+]([O-])[O-].[Ag+]` [AgNO3], the “Relative Activity (%) at 0.1 mM” value in assay [2] (setting [7]) amounted to 107%. In addition, the “Relative Activity (%) at 1.0 mM” value in assay [2] (setting [8]) is 41%. For the same compound, the “Inhibition … (in words)” value in assay [2] (purified to homogeneity) is recorded as “inhibited”.
In the case of `O=C(O)c1cc[c]([Hg][Cl])cc1` [pCMB, -p(Chloromercuri)benzoic acid], the “Relative activity in presence of inhibitor/metal ion, E1” value in assay [4] is 0%. Besides, in assay [1] (setting [9]), the “Relative activity in presence of inhibitor/metal ion, E3” value is recorded as 98%. In addition, in assay [2] (setting [7]), the “Relative Activity (%) at 0.1 mM” value turned out to be 107%. Also, the “Relative Activity (%) at 1.0 mM” value in assay [2] (setting [8]) stood at 90%. Further, in assay [2] (purified to homogeneity), the “Inhibition … (in words)” value is on record as “slightly inhibited”. Moreover, the “Relative activity in presence of inhibitor/metal ion, the present enzyme” value in assay [3] (setting [10]) is 4%. Further, the “Relative activity in presence of inhibitor/metal ion, E2” value in assay [5] is 8%.
As for `[Cl-].[Cl-].[Co+2]` [CoCl2], the “Relative Activity (%) at 1.0 mM” value in assay [2] (setting [8]) amounted to 105%.
Regarding `CCN(CC)C(=S)S` [DDC, Diethyldithiocarbamate], in assay [2] (setting [7]), the activity at 100 µM was 93%. Moreover, the activity at 1000 µM in assay [2] (setting [6]) came out at 94%. Besides, in assay [3] (setting [10]), the inhibition at 1000 µM stood at 0%.
Turning to `O=C(O)CN(CCN(CC(=O)O)CC(=O)O)CC(=O)O` [EDTA · 2Na], in assay [2], the “Inhibition … (in words)” value is given as “no inhibitory action”. Besides, the activity at 1000 µM in assay [2] (pH 7, read-out: Relative Activity (%) at 1.0 mM) was determined as 97%.
For the compound `[Ni+2]` [Ni^2+], the “Relative activity in presence of inhibitor/metal ion, E1” value in assay [4] is given as 3%. For the same compound, in assay [1] (setting [9]), the “Relative activity in presence of inhibitor/metal ion, E3” value is reported as 33%. Further, the “Relative activity in presence of inhibitor/metal ion, the present enzyme” value in assay [3] (setting [10]) was found to be 81%. Further, in assay [3], the “Inhibition … (in words)” value is listed as “hardly inhibited”. Moreover, the “Relative activity in presence of inhibitor/metal ion, E2” value in assay [5] is reported as 55%.
As to `[Cu+2]` [Cu^2+], the “Relative activity in presence of inhibitor/metal ion, E3” value in assay [1] (setting [9]) is 26%. The “Relative activity in presence of inhibitor/metal ion, the present enzyme” value in assay [3] (setting [10]) came to 99%.
